Experimental data taken from US11976083B2, “Inhibitors of peptidylarginine deiminases” (Gilead Sciences, Inc., priority 2020, dated 2024).
pIC50: −log10 of the molar value.

target: T1, human PAD4 (Homo sapiens, UniProt Q9UM07); assay: In vitro PAD4 BAEE biochemical assay; conditions: BAEE substrate 3 mM, 5 nM PAD4, 2 mM calcium chloride; geometric mean of multiple experiments
T1 construct: human PAD4 (NM_012387), A2-P663, was PCR amplified; His-SUMO (N, cleaved yes); made in house; host or cells: E. coli BL21(DE3)
T1 sequence (Q9UM07 2-663): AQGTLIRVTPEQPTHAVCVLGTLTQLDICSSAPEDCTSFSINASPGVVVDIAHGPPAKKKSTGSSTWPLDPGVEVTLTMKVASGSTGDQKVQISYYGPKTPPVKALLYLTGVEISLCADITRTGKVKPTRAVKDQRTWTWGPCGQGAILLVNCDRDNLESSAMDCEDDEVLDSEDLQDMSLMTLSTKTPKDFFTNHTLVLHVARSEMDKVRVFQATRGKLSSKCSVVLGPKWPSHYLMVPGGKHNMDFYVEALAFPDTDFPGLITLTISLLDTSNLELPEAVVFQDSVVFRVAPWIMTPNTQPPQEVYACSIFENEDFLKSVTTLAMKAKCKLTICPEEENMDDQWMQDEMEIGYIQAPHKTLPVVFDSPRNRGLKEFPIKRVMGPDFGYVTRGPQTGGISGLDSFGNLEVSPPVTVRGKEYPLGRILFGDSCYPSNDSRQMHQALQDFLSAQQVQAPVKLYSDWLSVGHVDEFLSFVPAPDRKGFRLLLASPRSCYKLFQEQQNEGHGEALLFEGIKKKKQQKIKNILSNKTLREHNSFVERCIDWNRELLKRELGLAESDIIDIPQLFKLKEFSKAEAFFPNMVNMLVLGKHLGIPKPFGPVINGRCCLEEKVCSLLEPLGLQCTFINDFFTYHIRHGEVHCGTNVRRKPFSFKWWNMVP
Outline: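 Recombinant PAD4 (5 nM final) with 2 mM CaCl2 was preincubated with compound for 30 min at 25 °C in MOPS pH 7.6 buffer with DTT, then reacted with 3 mM BAEE for 2 h at 25 °C. Released ammonia was detected fluorimetrically with o-phthalaldehyde/DTT; IC50 from four-parameter fit, geometric mean of experiments.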

In order of rising pIC50:
1. COc1cc(C(=O)NC2CNC2)cc2nc(-c3cc4ccc5nc4n3CCCCCCC(C)(C)C(=O)N[C@@H]5C)n(C)c12 [Example 177, ~{N}-(azetidin-3-yl)-7-methoxy-1-methyl-2-[(11~{R})-8,8,11-trimethyl-9-oxo-1,10,19-triazatricyclo[10.5.2.0^{15,18}]nonadeca-12(19),13,15(18),16-tetraen-17-yl]benzimidazole-5-carboxamide]  4.52
2. COc1cc(C(=O)N2CCC[C@@H](N)C2)cc2nc(-c3cc4ccc5nc4n3CCCC#Cc3cnn(C)c3C(=O)N[C@@H]5C)n(C)c12 [Example 171, (2~{R})-16-[5-[(3~{R})-3-aminopiperidine-1-carbonyl]-7-methoxy-1-methyl-benzimidazol-2-yl]-2,6-dimethyl-3,6,7,15,21-pentazatetracyclo[13.5.2.0^{5,9}.0^{18,22}] docosa-1(21),5(9),7,16,18(22),19-hexaen-10-yn-4-one]  6.09
3. COc1cc(C(=O)N2CCC[C@@H](N)C2)cc2nc(-c3cc4ccc5cc4n3CCCCC[C@@H]3C[C@H]3C(=O)N[C@@H]5C)n(C)c12 [Example 165, (2~{R},5~{R},7~{R})-14-[5-[(3~{R})-3-aminopiperidine-1-carbonyl]-7-methoxy-1-methyl-benzimidazol-2-yl]-2-methyl-3,13-diazatetracyclo[11.5.2.0^{5,7}.0^{16,20}] icosa-1(19),14,16(20),17-tetraen-4-one]  6.63
4. COc1cc(C(=O)N2CC[C@@H](OC)[C@@H](N)C2)cc2nc(-c3cc4ccc5nc4n3CCCCC[C@H]3C[C@]3(C)C(=O)N[C@@H]5C)n(C)c12 [Example 175]  6.64
5. C[C@H]1NC(=O)C(C)(C)CCCCCCn2c(-c3nc4cc(C(=O)N[C@@H]5CCCNC5)c(F)cc4n3C3CC3)cc3ccc1nc32 [Example 176, 1-cyclopropyl-6-fluoro-~{N}-[(3~{R})-3-piperidyl]-2-[(11~{R})-8,8,11-trimethyl-9-oxo-1,10,19-triazatricyclo[10.5.2.0^{15,18}]nonadeca-12(19),13,15(18),16-tetraen-17-yl]benzimidazole-5-carboxamide]  6.71
6. COc1cc(C(=O)N2CCC[C@@H](N)C2)cc2nc(-c3cc4ccc5nc4n3CCCCCc3c(cnn3C)C(=O)N[C@@H]5C)n(C)c12 [Example 170, (2~{R})-16-[5-[(3~{R})-3-aminopiperidine-1-carbonyl]-7-methoxy-1-methyl-benzimidazol-2-yl]-2,8-dimethyl-3,7,8,15,21-pentazatetracyclo[13.5.2.0^{5,9).0^{18,22}] docosa-1(21),5(9),6,16,18(22),19-hexaen-4-one]  6.93
7. COc1cc(C(=O)N2CC[C@@H](OC)[C@@H](N)C2)cc2nc(-c3cc4ccc5cc4n3CCCCCCC(C)(C)C(=O)N[C@@H]5C)n(C)c12 [Example 173, (11~{R})-17-[5-[(3~{S},4~{R})-3-amino-4-methoxy-piperidine-1-carbonyl]-7-methoxy-1-methyl-benzimidazol-2-yl]-8,8,11-trimethyl-1,10-diazatricyclo[10.5.2.0^{15,18}]nonadeca-12(19),13,15(18),16-tetraen-9-one]  6.96
8. COc1cc(C(=O)N2CCC[C@@H](N)C2)cc2nc(-c3cc4ccc5nc4n3C[C@H]3C[C@@H]3[C@H](C)OCCC(=O)N[C@@H]5C)n(C)c12 [Example 161, (3~{S},5~{S},6~{S},12~{R})-18-[5-[(3~{R})-3-aminopiperidine-1-carbonyl]-7-methoxy-1-methyl-benzimidazol-2-yl]-6,12-dimethyl-7-oxa-1,11,20-triazatetracyclo[11.5.2.0^{3,5}.0^{16,19}] icosa-13(20),14,16(19),17-tetraen-10-one]  6.97
9. COc1cc(C(=O)N2CCC[C@@H](N)C2)cc2nc(-c3cc4ccc5nc4n3CCCCCc3cnn(C)c3C(=O)N[C@@H]5C)n(C)c12 [Example 172, (2~{R})-16-[5-[(3~{R})-3-aminopiperidine-1-carbonyl]-7-methoxy-1-methyl-benzimidazol-2-yl]-2,6-dimethyl-3,6,7,15,21-pentazatetracyclo[13.5.2.0^{5,9}.0^{18,22}] docosa-1(21),5(9),7,16,18(22),19-hexaen-4-one]  7.00
10. COc1cc(C(=O)N2CCC[C@@H](N)C2)cc2nc(-c3cc4ccc5nc4n3C[C@@H]3C[C@H]3CC[C@H]3C[C@@H]3C(=O)N[C@@H]5C)n(C)c12 [Example 167, (3~{R},5~{R},8~{S},10~{S},13~{R})-19-[5-[(3~{R})-3-aminopiperidine-1-carbonyl]-7-methoxy-1-methyl-benzimidazol-2-yl]-13-methyl-1,12,21-triazapentacyclo[12.5.2.0^{3,5}.0^{8,10}.0^ {17,20}]henicosa-14(21),15,17(20),18-tetraen-11-one]  7.05
11. COc1cc(C(=O)N2CC[C@@H](OC)[C@@H](N)C2)cc2nc(-c3cc4ccc5nc4n3CCCCC[C@@H]3C[C@H]3C(=O)N[C@@H]5C)n(C)c12 [Example 174, (2~{R},5~{R},7~{R})-14-[5-[(3~{S),4~{R})-3-amino-4-methoxy-piperidine-1-carbonyl]-7-methoxy-1-methyl-benzimidazol-2-yl]-2-methyl-3,13,19-triazatetracyclo[11.5.2.0^{5,7}.0^{16,20}] icosa-1(19),14,16(20),17-tetraen-4-one]  7.10
12. COc1cc(C(=O)N[C@H]2CNCC[C@@H]2F)cc2nc(-c3cc4ccc5nc4n3CCCCCc3c(cnn3C)C(=O)N[C@@H]5C)n(C)c12 [Example 180, 2-[(2~{R})-2,8-dimethyl-4-oxo-3,7,8,15,21-pentazatetracyclo[13.5.2.0^{5,9}.0^{18,22}]docosa-1(21),5(9),6,16,18(22),19-hexaen-16-yl]-~{N}-[(3~{S},4~{S})-4-fluoro-3-piperidyl]-7-methoxy-1-methyl-benzimidazole-5-carboxamide]  7.12
13. C[C@H]1NC(=O)C(C)(C)CCCCCCn2c(-c3nc4cc(C(=O)N5CCC[C@@H](N)C5)c(F)cc4n3C3CC3)cc3ccc1nc32 [Example 169, (11~{R})-17-[5-[(3~{R})-3-aminopiperidine-1-carbonyl]-1-cyclopropyl-6-fluoro-benzimidazol-2-yl]-8,8,11-trimethyl-1,10,19-triazatricyclo[10.5.2.0^{15,18}]nonadeca-12(19),13,15(18),16-tetraen-9-one]  7.16
14. C[C@H]1NC(=O)C(C)(C)CCCCCCn2c(-c3nc4cc(C(=O)N[C@H]5CNCC[C@@H]5F)c(F)cc4n3C3CC3)cc3ccc1nc32 [Example 179, 1-cyclopropyl-6-fluoro-~{N}-[(3~{S},4~{S})-4-fluoro-3-piperidyl]-2-[(11~{R})-8,8,11-trimethyl-9-oxo-1,10,19-triazatricyclo[10.5.2.0^{15,18}]nonadeca-12(19),13,15(18),16-tetraen-17-yl]benzimidazole-5-carboxamide]  7.21
15. COc1cc(C(=O)N2CCC[C@@H](N)C2)cc2nc(-c3cc4ccc5nc4n3C[C@H]3C[C@@H]3[C@@H](C)OCCC(=O)N[C@@H]5C)n(C)c12 [Example 162, (3~{S),5~{S},6~{R},12~{R})-18-[5-[(3~{R})-3-aminopiperidine-1-carbonyl]-7-methoxy-1-methyl-benzimidazol-2-yl]-6,12-dimethyl-7-oxa-1,11,20-triazatetracyclo[11.5.2.0^{3,5}.0^{16,19}] icosa-13(20),14,16(19),17-tetraen-10-one]  7.26
16. COc1cc(C(=O)N2CCC[C@@H](N)C2)cc2nc(-c3cc4ccc5nc4n3C[C@H]3C[C@@H]3CCCCC(=O)N[C@@H]5C)n(C)c12 [Example 163, (3~{S},5~{S},12~{R})-18-[5-[(3~{R})-3-aminopiperidine-1-carbonyl]-7-methoxy-1-methyl-benzimidazol-2-yl]-12-methyl-1,11,20-triazatetracyclo[11.5.2.0^{3,5}.0^{16,19}] icosa-13(20),14,16(19),17-tetraen-10-one]  7.29
17. COc1cc(C(=O)N[C@H]2CNCC[C@@H]2F)cc2nc(-c3cc4ccc5nc4n3CCCCCCC(C)(C)C(=O)N[C@@H]5C)n(C)c12 [Example 178, ~{N}-[(3~{S},4~{S})-4-fluoro-3-piperidyl]-7-methoxy-1-methyl-2-[(11~{R})-8,8,11-trimethyl-9-oxo-1,10-diazatricyclo[10.5.2.0^{15,18}]nonadeca-12(19),13,15(18),16-tetraen-17-yl]benzimidazole-5-carboxamide]  7.30
18. COc1cc(C(=O)N2CCC[C@@H](N)C2)cc2nc(-c3cc4ccc5nc4n3C[C@H]3C[C@@H]3CCCC(C)C(=O)N[C@@H]5C)n(C)c12 (some centres unmarked) [Example 166, (3~{S},5~{S},12~{R})-18-[5-[(3~{R})-3-aminopiperidine-1-carbonyl]-7-methoxy-1-methyl-benzimidazol-2-yl]-9,12-dimethyl-1,11,20-triazatetracyclo[11.5.2.0^{3,5}.0^{16,19}] icosa-13(20),14,16(19),17-tetraen-10-one]  7.31
19. COc1cc(C(=O)N2CCC[C@@H](N)C2)cc2nc(-c3cc4ccc5nc4n3C[C@@H]3C[C@H]3CC[C@@H]3C[C@H]3C(=O)N[C@@H]5C)n(C)c12 [Example 168, (3~{R},5~{R},8~{R},10~{R},13~{R})-19-[5-[(3~{R})-3-aminopiperidine-1-carbonyl]-7-methoxy-1-methyl-benzimidazol-2-yl]-13-methyl-1,12,21-triazapentacyclo[12.5.2.0^{3,5}.0^{8,10}.0^ {17,20}]henicosa-14(21),15,17(20),18-tetraen-11-one]  7.41
20. COc1cc(C(=O)N2CCC[C@@H](N)C2)cc2nc(-c3cc4ccc5cc4n3CCCCC[C@H]3C[C@@H]3C(=O)N[C@@H]5C)n(C)c12 [Example 164, (2~{R},5~{S},7~{S})-14-[5-[(3~{R})-3-aminopiperidine-1-carbonyl]-7-methoxy-1-methyl-benzimidazol-2-yl]-2-methyl-3,13-diazatetracyclo[11.5.2.0^{5,7}.0^{16,20}] icosa-1(19),14,16(20),17-tetraen-4-one]  7.48
